Inhibition and IC50 data for four compounds are collected here from ChEMBL document CHEMBL6103652, “Niacin Ester Derivative of Brefeldin A as a Potential Dual-Target Arf1/BMX Inhibitor for Bladder Cancer” (J Nat Prod, 2025).

By inhibition is commonly meant the share of the control response that was lost under treatment. A word on the IC50: it is the concentration that gives 50% inhibition.

Data set [1] relates to T-24. As to the kind of experiment: Antiproliferative activity against human T24 cells assessed as inhibition of cell proliferation at 0.25 uM incubated for 72 to 120 hrs by MTT assay relative to control. The class given is functional. To be noted: time 72-120 hrs. In general terms: Formazan colour is commonly taken as a measure of viable cells.
Data set [2] in a line: Antiproliferative activity against […] MB49 cells assessed as inhibition of cell proliferation measured after 72 hrs by MTT assay. The class given is functional, cell-based. Particulars: MB49, 72 h.
The subject of the next data set is L1210. As to the kind of experiment: Antiproliferative activity against mouse L1210 cells assessed as inhibition of cell proliferation measured after 72 hrs by MTT assay. The class given is functional, cell-based. Particulars: L1210, 72 h.
Another data set concerns A549. As to the kind of experiment: Antiproliferative activity against human A549 cells assessed as inhibition of cell proliferation measured after 72 hrs by MTT assay. The class given is functional, cell-based. Particulars: A549, 72 h.
A short description of data set [3]: Cytotoxicity against human LO2 cells measured after 72 hrs by MTT assay. The class given is toxicity, cell-based, L02.
A further data set deals with Bel-7402. The experiment in a line: Antiproliferative activity against human Bel-7402 cells assessed as inhibition of cell proliferation measured after 72 hrs by MTT assay. The class given is functional, cell-based. Particulars: Bel-7402, 72 h.
For another data set, the system named is HT-29. The experiment in a line: Antiproliferative activity against human HT-29 cells assessed as inhibition of cell proliferation measured after 72 hrs by MTT assay. To be noted: HT-29, 72 h. The class given is functional, cell-based.
The subject of a further data set is Huh-7. The experiment in a line: Antiproliferative activity against human Huh-7 cells assessed as inhibition of cell proliferation measured after 72 hrs by MTT assay. The class given is functional, cell-based. To be noted: Huh-7, 72 h.
A further data set deals with HCT-116. As to the kind of experiment: Antiproliferative activity against human HCT-116 cells assessed as inhibition of cell proliferation measured after 72 hrs by MTT assay. The class given is functional, cell-based. To be noted: HCT-116, 72 h.
In data set [4] the test system is T-24. The experiment in a line: Antiproliferative activity against human T24 cells assessed as inhibition of cell proliferation measured after 72 hrs by MTT assay. The class given is functional, cell-based. To be noted: T-24, 72 h.

A value given as a limit tells only on which side of the number the result lay.

Take `C[C@H]1CCC/C=C/[C@@H]2C[C@H](OC(=O)c3cccnc3)C[C@H]2[C@H](OC(=O)c2cccnc2)/C=C/C(=O)O1`: the inhibition at 0.25 µM with T-24 [1] was < 40%.

For the compound `C[C@H]1CCC/C=C/[C@@H]2C[C@H](OC(=O)c3cccnc3)C[C@H]2[C@H](O)/C=C/C(=O)O1`, in the data set with T-24 [1], the inhibition at 0.25 µM was < 40%.

As to `C[C@H]1CCC/C=C/[C@@H]2C[C@H](O)C[C@H]2[C@H](O)/C=C/C(=O)O1` [BREFELDIN A], the IC50 in [2] was found to be 2160 nM; with L1210, 1570 nM; with A549, 60 nM; in the data set with Bel-7402 it was 120 nM; in the data set on HT-29 it was 70 nM; with Huh-7, 180 nM. The IC50 in the data set on HCT-116 amounted to 100 nM; in the data set with T-24 [4], 80 nM. Besides, in [3], 140 nM corresponded to half-maximal inhibition (IC50 at 72 h).

As for `COc1cccc2c1C(=O)c1c(O)c3c(c(O)c1C2=O)C[C@@](O)(C(=O)CO)C[C@@H]3O[C@H]1C[C@H](N)[C@H](O)[C@H](C)O1` [DOXORUBICIN], the IC50 in [2] is > 1000 nM; in the data set with L1210 it was < 1000 nM; in the data set with A549 it was 440 nM; in the data set with HT-29, 420 nM; in the data set with Huh-7 it was 620 nM; in the data set on HCT-116 it was < 1000 nM. For the same compound, the IC50 in the data set on T-24 [4] stood at 250 nM.
